# Tested on: HER2
# Test: HER2 degradation assay with BT-474 cell line (Example 12, FACS)
# Format: cell-based
# Details: Homo sapiens, BT-474; SDC-TRAPs of the 41st table
row,SMILES,IC50 [µM]
1,"CC(C)c1cc(-c2nnc(O)n2-c2ccc(CC3CCN(CC4CCN(C(=O)c5ccc(CCc6c[nH]c7nc(N)[nH]c(=O)c67)cc5)CC4)CC3)cc2)c(O)cc1O [SDC-TRAP-0103, 2-amino-5-(4-(4-((4-(4-(3-(2,4-dihydroxy-5-isopropylphenyl)-5-hydroxy-4H-1,2,4-triazol-4-yl)benzyl)piperidin-1-yl)methyl)piperidine-1-carbonyl)phenethyl)-3H-pyrrolo[2,3-d]pyrimidin-4(7H)-one]",0.245

# Same assay, conditions: Homo sapiens, BT-474; SDC-TRAPs of the 43rd table
row,SMILES,IC50 [µM]
1,"CCc1c2c(nc3ccc(OCC(=O)N4CCN(Cc5ccc(-n6c(O)nnc6-c6cc(C(C)C)c(O)cc6O)cc5)CC4)cc13)-c1cc3c(c(=O)n1C2)COC(=O)C3(O)CC (centres unmarked) [SDC-TRAP-0077, 9-(2-(4-(4-(3-(2,4-dihydroxy-5-isopropylphenyl)-5-hydroxy-4H-1,2,4-triazol-4-yl)benzyl)piperazin-1-yl)-2-oxoethoxy)-4,11-diethyl-4-hydroxy-1H-pyrano[3′,4′:6, 7]indolizino[1,2-b]quinoline-3,14(4H,12H)-dione]",2.79

# Same assay, conditions: Homo sapiens; BT-474 cells
row,SMILES,IC50 [µM]
1,"CC(C)c1cc(-c2nnc(O)n2-c2ccc(N3CCN(C(=O)c4ccc(COC(=O)Nc5cccc6c5CN(C5CCC(=O)NC5=O)C6=O)cc4)CC3)cc2)c(O)cc1O (centres unmarked) [SDC-TRAP-0156, 4-(4-(4-(3-(2,4-Dihydroxy-5-isopropylphenyl)-5-hydroxy-4H-1,2,4-triazol-4-yl)phenyl)piperazine-1-carbonyl)benzyl (2-(2,6-dioxopiperidin-3-yl)-1-oxoisoindolin-4-yl)carbamate]",3.5
2,"CCNC(=O)c1nnc(-c2cc(C(C)C)c(O)cc2O)n1-c1ccc(C(=O)N[C@H](C(=O)Nc2cccc3c2CN(C2CCC(=O)NC2=O)C3=O)C(C)C)cc1 (stereo partly drawn) [SDC-TRAP-0188, 5-(2,4-dihydroxy-5-isopropylphenyl)-4-(4-(((2S)-1-((2-(2,6-dioxopiperidin-3-yl)-1-oxoisoindolin-4-yl)amino)-3-methyl-1-oxobutan-2-yl)carbamoyl)phenyl)-N-ethyl-4H-1,2,4-triazole-3-carboxamide]",3.95
3,"CC(C)c1cc(-c2nnc(O)n2-c2ccc3c(ccn3CCC3CCN(C(=O)Nc4cccc5c4CN(C4CCC(=O)NC4=O)C5=O)CC3)c2)c(O)cc1O (centres unmarked) [SDC-TRAP-0119, 4-(2-(5-(3-(2,4-dihydroxy-5-isopropylphenyl)-5-hydroxy-4H-1,2,4-triazol-4-yl)-1H-indol-1-yl)ethyl)-N-(2-(2,6-dioxopiperidin-3-yl)-1-oxoisoindolin-4-yl)piperidine-1-carboxamide]",> 10
4,"CC(C)c1cc(-c2nnc(O)n2-c2ccc(CN3CCN(C(=O)CCn4cc(F)c(=O)[nH]c4=O)CC3)cc2)c(O)cc1O [SDC-TRAP-0049, 1-(3-(4-(4-(3-(2,4-dihydroxy-5-isopropylphenyl)-5-hydroxy-4H-1,2,4-triazol-4-yl)benzyl)piperazin-1-yl)-3-oxopropyl)-5-fluoropyrimidine-2,4(1H,3H)-dione]",> 5
5,"CCNC(=O)c1nnc(-c2cc(C(C)C)c(O)cc2O)n1-c1ccc(Oc2ccc(C(=O)N3CCC[C@H]3C(=O)Nc3cccc4c3CN(C3CCC(=O)NC3=O)C4=O)cc2)cc1 (stereo partly drawn) [SDC-TRAP-0192, 5-(2,4-dihydroxy-5-isopropylphenyl)-4-(4-(4-((2S)-2-((2-(2,6-dioxopiperidin-3-yl)-1-oxoisoindolin-4-yl)carbamoyl)pyrrolidine-1-carbonyl)phenoxy)phenyl)-N-ethyl-4H-1,2,4-triazole-3-carboxamide]",> 5
6,"CC(C)c1cc(-c2nnc(O)n2-c2ccc(CCC3CCN(C(=O)Nc4cccc5c4CN(C4CCC(=O)NC4=O)C5=O)CC3)cc2)c(O)cc1O (centres unmarked) [SDC-TRAP-0108, 4-(4-(3-(2,4-dihydroxy-5-isopropylphenyl)-5-hydroxy-4H-1,2,4-triazol-4-yl)phenethyl)-N-(2-(2,6-dioxopiperidin-3-yl)-1-oxoisoindolin-4-yl) piperidine-1-carboxamide]",> 10
7,"CCNC(=O)c1nnc(-c2cc(C(C)C)c(O)cc2O)n1-c1ccc(C(=O)N(C)CCOC(=O)Nc2cccc3c2CN(C2CCC(=O)NC2=O)C3=O)cc1 (centres unmarked) [SDC-TRAP-0133, 2-(4-(3-(2,4-dihydroxy-5-isopropylphenyl)-5-(ethylcarbamoyl)-4H-1,2,4-triazol-4-yl)-N-methylbenzamido)ethyl(2-(2,6-dioxopiperidin-3-yl)-1-oxoisoindolin-4-yl)carbamate]",> 10
8,"CCNC(=O)c1nnc(-c2cc(C(C)C)c(O)cc2O)n1-c1ccc(CN2CCC(C(=O)N[C@@H](CC(C)C)C(=O)Nc3cccc4c3CN(C3CCC(=O)NC3=O)C4=O)CC2)cc1 (stereo partly drawn) [SDC-TRAP-0193, 1-(4-(3-(2,4-dihydroxy-5-isopropylphenyl)-5-(ethylcarbamoyl)-4H-1,2,4-triazol-4-yl)benzyl)-N-((2S)-1-((2-(2,6-dioxopiperidin-3-yl)-1-oxoisoindolin-4-yl)amino)-4-methyl-1-oxopentan-2-yl)piperidine-4-carboxamide]",0.266
9,"CCNC(=O)c1nnc(-c2cc(C(C)C)c(O)cc2O)n1-c1ccc(CN2CCC(C(=O)N(C)CCCOC(=O)Nc3cccc4c3CN(C3CCC(=O)NC3=O)C4=O)CC2)cc1 (centres unmarked) [SDC-TRAP-0231, 3-(1-(4-(3-(2,4-dihydroxy-5-isopropylphenyl)-5-(ethylcarbamoyl)-4H-1,2,4-triazol-4-yl)benzyl)-N-methylpiperidine-4-carboxamido)propyl (2-(2,6-dioxopiperidin-3-yl)-1-oxoisoindolin-4-yl)carbamate]",0.696
10,"CC(C)c1cc(-c2nnc(O)n2-c2ccc(CN3CCN(C(=O)Cc4ccc(COC(=O)Nc5cccc6c5CN(C5CCC(=O)NC5=O)C6=O)cc4)CC3)c(F)c2)c(O)cc1O (centres unmarked) [SDC-TRAP-0194, 4-(2-(4-(4-(3-(2,4-dihydroxy-5-isopropylphenyl)-5-hydroxy-4H-1,2,4-triazol-4-yl)-2-fluorobenzyl)piperazin-1-yl)-2-oxoethyl)benzyl (2-(2,6-dioxopiperidin-3-yl)-1-oxoisoindolin-4-yl)carbamate]",2.12
11,"CC(C)c1cc(-c2nnc(O)n2-c2ccc(CN3CCN(C(=O)Nc4cccc5c4CN(C4CCC(=O)NC4=O)C5=O)CC3)cc2)c(O)cc1O (centres unmarked) [SDC-TRAP-0109, 4-(4-(3-(2,4-di hydroxy-5-isopropylphenyl)-5-hydroxy-4H-1,2,4-triazol-4-yl)benzyl)-N-(2-(2,6-dioxopiperidin-3-yl)-1-oxoisoindolin-4-yl)piperazine-1-carboxamide]",> 10
12,"CC(C)c1cc(-c2nnc(O)n2-c2ccc(N3CCN(CCCC(=O)Nc4cccc5c4CN(C4CCC(=O)NC4=O)C5=O)CC3)cc2)c(O)cc1O (centres unmarked) [SDC-TRAP-0126, 4-(4-(4-(3-(2,4-dihydroxy-5-isopropylphenyl)-5-hydroxy-4H-1,2,4-triazol-4-yl)phenyl)piperazin-1-yl)-N-(2-(2,6-dioxopiperidin-3-yl)-1-oxoisoindolin-4-yl) butanamide]",8.64
